Like-named read-outs stand apart in the source and are kept apart here.
Key:
Assay in all cases: TGFα-shedding assay-based GPCR screening with chimeric Gα subunit proteins
Type in all cases: cell-based
Settings in all cases: 10µM, Favipiravir 100μM
348 GPCRs [1] = biological target: T1, 348 GPCRs (Homo sapiens, UniProt P35414)
T1 sequence (P35414 1-380): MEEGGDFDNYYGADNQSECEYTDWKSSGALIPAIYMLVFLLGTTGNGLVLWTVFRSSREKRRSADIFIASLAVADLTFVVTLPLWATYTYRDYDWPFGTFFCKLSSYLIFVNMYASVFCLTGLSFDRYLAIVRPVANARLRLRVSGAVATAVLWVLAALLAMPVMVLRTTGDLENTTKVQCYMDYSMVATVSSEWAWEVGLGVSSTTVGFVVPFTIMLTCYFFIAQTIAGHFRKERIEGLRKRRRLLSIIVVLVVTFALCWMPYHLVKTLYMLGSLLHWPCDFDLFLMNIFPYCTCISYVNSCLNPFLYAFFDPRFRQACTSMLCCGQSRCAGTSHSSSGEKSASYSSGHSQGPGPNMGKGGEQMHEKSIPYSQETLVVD

348 GPCRs [2] = biological target: T2, 348 GPCRs (Homo sapiens, UniProt P55085)
T2 construct: expressed in transfected cells; host or cells: HEK293A
T2 sequence (P55085 26-397): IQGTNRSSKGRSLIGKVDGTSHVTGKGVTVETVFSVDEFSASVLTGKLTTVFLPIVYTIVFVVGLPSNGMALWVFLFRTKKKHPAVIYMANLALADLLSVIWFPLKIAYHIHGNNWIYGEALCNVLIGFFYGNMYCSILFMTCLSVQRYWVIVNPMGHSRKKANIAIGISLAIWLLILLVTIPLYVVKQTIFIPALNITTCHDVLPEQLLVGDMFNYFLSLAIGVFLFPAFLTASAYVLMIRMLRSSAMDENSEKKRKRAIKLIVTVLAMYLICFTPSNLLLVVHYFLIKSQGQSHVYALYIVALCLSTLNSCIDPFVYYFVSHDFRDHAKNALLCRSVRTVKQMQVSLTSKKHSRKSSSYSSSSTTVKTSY

348 GPCRs [3] = biological target: T3, 348 GPCRs (Homo sapiens, UniProt Q8NFN8)
T3 construct: expressed in transfected cells; host or cells: HEK293A
T3 sequence (Q8NFN8 1-814): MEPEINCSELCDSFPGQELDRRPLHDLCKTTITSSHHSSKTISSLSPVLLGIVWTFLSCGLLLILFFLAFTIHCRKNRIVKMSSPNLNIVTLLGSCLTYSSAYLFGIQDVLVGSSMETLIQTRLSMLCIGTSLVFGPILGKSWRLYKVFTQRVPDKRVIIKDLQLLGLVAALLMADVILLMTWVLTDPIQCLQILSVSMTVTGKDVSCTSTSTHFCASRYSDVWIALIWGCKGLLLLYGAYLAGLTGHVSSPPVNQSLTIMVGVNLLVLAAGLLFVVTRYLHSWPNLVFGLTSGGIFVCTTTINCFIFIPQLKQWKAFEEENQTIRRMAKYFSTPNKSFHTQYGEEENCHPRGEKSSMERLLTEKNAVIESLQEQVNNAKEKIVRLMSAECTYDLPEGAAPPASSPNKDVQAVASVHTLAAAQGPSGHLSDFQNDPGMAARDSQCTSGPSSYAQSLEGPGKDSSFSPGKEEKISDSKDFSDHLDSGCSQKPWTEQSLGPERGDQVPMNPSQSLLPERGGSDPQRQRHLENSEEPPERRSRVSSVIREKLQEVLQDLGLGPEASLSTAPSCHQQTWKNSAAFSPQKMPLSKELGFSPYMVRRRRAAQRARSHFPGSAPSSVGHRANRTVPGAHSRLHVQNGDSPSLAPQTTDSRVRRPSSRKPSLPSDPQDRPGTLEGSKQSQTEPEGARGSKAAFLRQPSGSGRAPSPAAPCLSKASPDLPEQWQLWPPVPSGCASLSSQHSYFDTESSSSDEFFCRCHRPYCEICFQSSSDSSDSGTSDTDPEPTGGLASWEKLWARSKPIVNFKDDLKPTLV

348 GPCRs [4] = biological target: T4, 348 GPCRs (Homo sapiens, UniProt Q92633)
T4 construct: expressed in transfected cells; host or cells: HEK293A

348 GPCRs [5] = biological target: T5, 348 GPCRs (Homo sapiens, UniProt Q96LB1)
T5 construct: expressed in transfected cells; host or cells: HEK293A
T5 sequence (Q96LB1 1-330): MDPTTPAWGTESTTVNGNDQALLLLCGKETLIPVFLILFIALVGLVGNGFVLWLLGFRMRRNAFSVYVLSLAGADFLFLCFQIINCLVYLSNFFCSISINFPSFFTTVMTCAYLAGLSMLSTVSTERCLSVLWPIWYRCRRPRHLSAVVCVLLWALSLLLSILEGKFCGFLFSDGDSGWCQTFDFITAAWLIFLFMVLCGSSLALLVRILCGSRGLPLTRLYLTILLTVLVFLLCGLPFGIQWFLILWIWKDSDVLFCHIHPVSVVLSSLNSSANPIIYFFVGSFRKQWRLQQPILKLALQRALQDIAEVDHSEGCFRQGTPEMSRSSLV

[6] = APLNR (apelin receptor), read-out: % GPCR activation compared to TPA
[7] = F2RL1 (coagulation factor II (thrombin) receptor-like 1), read-out: % GPCR activation compared to TPA
[8] = GPR156 (G protein-coupled receptor 156), read-out: % GPCR activation compared to TPA
[9] = LPAR1 (lysophosphatidic acid receptor 1), read-out: % GPCR activation compared to TPA
[10] = MRGPRX2 (MAS-related GPR, member X2), read-out: % GPCR activation compared to TPA
[11] = read-out: % GPCR activation compared to TPA, APLNR (apelin receptor)
[12] = read-out: % GPCR activation compared to TPA, F2RL1 (coagulation factor II (thrombin) receptor-like 1)
[13] = read-out: % GPCR activation compared to TPA, GPR156 (G protein-coupled receptor 156)
[14] = read-out: % GPCR activation compared to TPA, LPAR1 (lysophosphatidic acid receptor 1)
[15] = read-out: % GPCR activation compared to TPA, MRGPRX2 (MAS-related GPR, member X2)

T4 sequence (Q92633 whole entry): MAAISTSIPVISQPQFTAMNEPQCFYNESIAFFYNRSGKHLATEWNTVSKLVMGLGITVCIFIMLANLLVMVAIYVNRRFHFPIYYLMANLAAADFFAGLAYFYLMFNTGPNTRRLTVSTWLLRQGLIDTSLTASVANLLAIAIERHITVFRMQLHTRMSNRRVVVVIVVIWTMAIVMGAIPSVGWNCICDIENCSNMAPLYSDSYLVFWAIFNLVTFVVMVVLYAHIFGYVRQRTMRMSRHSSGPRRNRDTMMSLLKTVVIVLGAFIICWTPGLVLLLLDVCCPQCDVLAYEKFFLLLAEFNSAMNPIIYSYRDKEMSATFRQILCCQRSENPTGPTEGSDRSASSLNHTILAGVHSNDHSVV

activation at 10 µM (348 GPCRs [1]; [6]) [%]	activation at 10 µM (348 GPCRs [2]; [7]) [%]	activation at 10 µM (348 GPCRs [3]; [8]) [%]	activation at 10 µM (348 GPCRs [4]; [9]) [%]	activation at 100 µM (348 GPCRs [5]; [10]) [%]	SMILES	activation at 10 µM (348 GPCRs [1]; [11]) [%]	activation at 10 µM (348 GPCRs [2]; [12]) [%]	activation at 10 µM (348 GPCRs [3]; [13]) [%]	activation at 10 µM (348 GPCRs [4]; [14]) [%]	activation at 100 µM (348 GPCRs [5]; [15]) [%]
-3.07	0.132	1.38	1.19	-2.44	N#C[C@@]1(c2ccc3c(N)ncnn23)O[C@H](CO)[C@@H](O)[C@H]1O [GS441524]					
-2.25	-2.7	2.77	0.687	-2.37	NC(=O)c1nc(F)cnc1O [favipiravir, 6-fluoro-3-hydroxy-2-pyrazinecarboxamide]					
-5.92	-1.8	-4.86	-1.42	-3.06	CC(C)C(=O)OC[C@H]1O[C@@H](n2ccc(NO)nc2=O)[C@H](O)[C@@H]1O [molnupiravir]					
					CCC(CC)COC(=O)[C@H](C)N[P@](=O)(OC[C@H]1O[C@@](C#N)(c2ccc3c(N)ncnn23)[C@H](O)[C@@H]1O)Oc1ccccc1 [remdesivir]	3.68	-1.25	4.05	0.719	0.19
					CC(C)OC(=O)[C@H](C)N[P@](=O)(OC[C@H]1O[C@@H](n2ccc(=O)[nH]c2=O)[C@](C)(F)[C@@H]1O)Oc1ccccc1 [sofosbuvir]	-5.57	0.0736	-4.51	3.41	0.383
